Measured values as given in article PMC6315362, “Cytotoxic Potential of the Novel Horseshoe Crab Peptide Polyphemusin III” (Marine Drugs, 2018).
Where a SMILES comes first, the peptide text is derived from it. Bridges are numbered along the chain shown (N, C = ends).

How the values were obtained:
HL-60 cells = test: Lactate dehydrogenase (LDH)-release assay; format: cell-based, human; conditions: HL-60, 1 h of incubation, 1.56–25 μM, RPMI serum-free medium; two independent series of triplicated experiments
Method: The loss of membrane integrity, detected by trypan blue exclusion assay and annexin V-FITC/propidium iodide double staining, was also evaluated by lactate dehydrogenase (LDH)-release. The cytosolic enzyme LDH is released upon cell lysis and therefore can be a marker of cell integrity. The percentage of LDH-leakage from cells enables evaluation of direct cell lysis.
The LDH-release assay (CytoTox 96 Non-Radioactive Cytotoxicity Assay; Promega Corporation, Madison, WI, USA) was performed according to the manufacturer’s protocol. Suspension HL-60 cells (4 × 10^4) were seeded into a 96-well plate in triplicate and incubated for 1 h with various concentrations of polyphemusin III at 100 μL per well in RPMI serum-free medium. Untreated cells served as a control for spontaneous LDH-release and cells treated with 1% Triton X-100 were used as a control for maximal LDH-release. Absorbance was measured at 490 nm using a microplate reader (Eppendorf, Hamburg, Germany). Percent LDH-release was calculated using the following Equation (2):[(experimental LDH-release − spontaneous LDH-release)/(maximal LDH-release − spontaneous LDH-release)] × 100(2)
The dose response curve shown is an average of two independent experiments.

[1] = test system: Caspase cascade pathway in HL-60 cells; test: Gene expression profiling and Oncobox pathway analysis; format: cell-based, human; conditions: versus intact cells, Oncobox
Method: To get a deeper molecular insight into the mechanisms of cell death induced by PM III, we profiled gene expression in the PM III treated (1.25, 2.5, and 5 µM) and intact HL-60 cells. Gene expression profiles were further analyzed using the Oncobox bioinformatical platform to measure activation levels of 376 intracellular signaling pathways. We found a significant inhibition of the Caspase cascade (Figure 6), while the TRAF (tumor necrosis factor receptor (TNF-R)-associated factor) pathway was strongly activated (Figure 7) following the PM III treatment. An additional line of evidence for the non-apoptotic mechanism of the PM III mediated activity was provided by the PTEN pathway. […] The activation levels of all signaling pathways profiled in this study and case-to-normal ratios for the respective genes are shown in Supplementary Table S1. Taken together, these facts rather argue for a non-apoptotic mode of the PM III action.
RNA extraction was performed immediately before preparation of sequencing libraries using a QIAGEN RNeasy Kit (Qiagen, Venlo, Netherlands) following the manufacturer’s protocol. Then, the RNA Integrity Number (RIN) was measured using an Agilent 2100 bio-Analyzer. Agilent RNA 6000 Nano or Qubit RNA Assay Kits were used to measure RNA concentration. A KAPA RNA Hyper with RiboErase (KAPA Biosystems, Wilmington, MA, USA) kit was used for further depletion of ribosomal RNA. […] Library concentrations and quality were measured using a Qubit ds DNA HS Assay kit (Life Technologies, Carlsbad, CA, USA) and Agilent Tapestation (Agilent, Santa Clara, CA, USA). RNA sequencing was performed using Illumina HiSeq 3000 equipment for single-end sequencing, 50 bp read length, for approximately 30 million raw reads per each sample. […]
The SABiosciences knowledge base was used to determine structures of intracellular molecular pathways as described previously. […] CNRs were calculated as the ratios of expression levels of a gene in the experimental samples to average expression levels in the control samples. […]

Structure (SMILES): CC(C)[C@@H]1NC(=O)[C@H](CCCNC(=N)N)NC(=O)[C@H](Cc2ccccc2)NC(=O)[C@@H](NC(=O)CNC(=O)[C@H](CCCNC(=N)N)NC(=O)[C@@H](N)CCCNC(=N)N)CSSC[C@@H](C(=O)N[C@@H](CCCNC(=N)N)C(=O)O)NC(=O)[C@H](CCCNC(=N)N)NC(=O)[C@H](CCC(N)=O)NC(=O)[C@H](Cc2ccccc2)NC(=O)[C@@H]2CSSC[C@H](NC1=O)C(=O)N[C@@H](Cc1ccc(O)cc1)C(=O)N[C@@H](CCCNC(=N)N)C(=O)NCC(=O)N[C@@H](Cc1ccccc1)C(=O)N2 [PM III, polyphemusin III] (H-RRGCFRVCYRGFCFQRCR-OH; disulfide 4-17, 8-13 (inferred); N-terminus assumed)
- LDH-release (cell lysis) (HL-60 cells): concentration-dependent lysis
- Caspase Cascade: PAS (pathway activation strength) ([1]; HL-60, 1.25 μM): -13.08
- Caspase Cascade: PAS (pathway activation strength) ([1]; HL-60, 2.5 μM): -13.96
- Caspase Cascade: PAS (pathway activation strength) ([1]; HL-60, 5 μM): -16.64
